Measurements published in patent US11479528B2, “Heat shock protein 90 inhibitors” (TAIPEI MEDICAL UNIVERSITY, priority 2017, dated 2022).

Assays:
[1] = tested on: HSP90 client proteins, i.e., EGFR, Akt, CDK-4, and HSP70, in HCT-116 tumor cells; test: Western blot of HSP90 client proteins in HCT-116 tumor cells; type: cell-based, human; conditions: HCT-116 cells, 24 hours after treatment
Protocol: Western blot analysis was performed to detect cell apoptotic signaling activated by substituted aromatic compounds of formula (I). Cells were harvested by scraping with lysis buffer (1 mM EGTA, 1 mM EDTA, 150 mM NaCl, 1% Triton X-100, 2.5 mM sodium pyrophosphate, 1 mM PMSF, 1 mM Na3VO4, 1 ug/mL leupeptin, 1 ug/mL aprotinin, 5 mM NaF in 20 mM Tris-HCl buffer, pH 7.5). Cell lysates were centrifuged at 13,000 g for 30 min. Total protein was determined and equal amounts of protein were separated by SDS-PAGE and immunoblotted with specific antibodies. Proteins were visualized by enhanced chemiluminescence (Amersham, Buckinghamshire, UK).
Total cellular extracts were obtained 24 hours after treatment.

[2] = tested on: lymphoblast MOLT4; test: MTT antiproliferative assay, MOLT4; type: cell-based; conditions: Homo sapiens, MOLT-4
[3] = molecular target: HSP90 α protein (Homo sapiens, UniProt P07900); test: HSP90 ATP-binding / fluorescence polarization competition assay (enzyme inhibition)
Protocol: To assess the inhibition of HSP90 activity within a cellular context, cells were treated with certain substituted aromatic compounds of formula (I) and the inhibition of HSP90 ATP-binding activity in cells was determined by using an ATP pull-down assay. Cells were treated with the compounds for 24 hours and then lysed in TNESV buffer (50 mM Tris, 2 mM EDTA, […], 1 mM activated sodium orthovanadate, 25 mM NaF, 1% Triton X-100 [pH 7.5]) for 30 min at 4° C. Lysates were spun for 30 min at 12000 rpm at 4° C. Protein (200 ug) was incubated with conditioned γ-ATP-polyacrylamide resin in incubation buffer (10 mM Tris-HCl, 50 mM KCl, 5 mM MgCl2, 20 mM Na2MoO4, 0.01% Nonidet P-40) overnight at 4° C., rotating. The resin was then washed four times with incubation buffer. Bound proteins were isolated by boiling with SDS buffer. For the competition studies, fluorescence polarization assays were performed under the following conditions: each 96-well plate contained 5 nM fluorescent GM (geldanamycin), 30 nM HSP90 α protein, and tested inhibitor in a final volume of 100 uL. For each assay, background wells (buffer only), tracer controls (free, fluorescent GMonly), and bound GM controls (fluorescent GM in the presence of HSP90) were included on each assay plate. The fraction of tracer bound to HSP90 was correlated to the mP value and plotted against log 10 values of competitor concentrations. The inhibitor concentration at which 50% of bound GM was displaced was obtained by fitting the data.

[4] = tested on: breast MDA-MB-231; test: Sulforhodamine B (SRB) assay, breast MDA-MB-231; type: cell-based; conditions: Homo sapiens, MDA-MB-231; Table 2; SRB; read-out: MDA-MB-231 GI50
Protocol: Human cancer cells were purchased from the American Type Culture Collection (Manassas, Va., USA). These cell lines were cultured in RPMI 1640 medium or DMEM supplemented with 10% FBS (v/v) and pencillin (100 U/mL)/streptomycin (100 ug/mL)/amphotericin B (0.25 ug/mL). Cultures were maintained at 37° C. in a humidified atmosphere of 5% CO2/95% air.
Cells were seeded in 96-well plates in medium with 5% fetal bovine serum. After 24 h, cells were fixed with 10% trichloroacetic acid to represent cell population at the time of drug addition (T0). After additional incubation of DMSO or drugs for 48 h, cells were fixed with 10% trichloroacetic acid and sulforhodamine B at 0.4% (w/v) in 1% acetic acid was added to stain cells. Unbound sulforhodamine B was washed out by 1% acetic acid and sulforhodamine B-bound cells were solubilized with 10 mmol/L Trizma base. The absorbance was read at a wavelength of 515 nm. Using the following absorbance measurements, such as time zero (T0), control growth (C), and cell growth in the presence of the drug (Tx), the percentage growth was calculated at each of the compound concentrations levels. Percentage growth inhibition was calculated as […].

[5] = tested on: leukemia HL60; test: MTT antiproliferative assay, HL60; type: cell-based; conditions: Homo sapiens, HL-60
[6] = Maximum tolerated dose and therapeutic index in vivo; conditions: in vivo, po
[7] = Pharmacokinetic profiles in rat; conditions: in vivo; for half-life: T1/2, rat
Protocol: A pharmacokinetic study was conducted to evaluate the pharmacokinetic properties of compounds of formula (I).

[8] = tested on: human lung NSCLC A549 cancer xenograft; test: Human lung NSCLC A549 cancer xenograft model; type: in vivo; conditions: daily oral administration
[9] = tested on: bone marrow K562; test: MTT antiproliferative assay, K562; type: cell-based; conditions: Homo sapiens
[10] = tested on: human colon HCT116 xenograft; test: Human colon HCT116 xenograft model; conditions: qd, po; for TGI, tumor growth inhibition: n = 7-8
Protocol: An in vivo study was conducted to evaluate the efficacy of compounds of formula (I) in suppressing tumor growth in a human colon HCT116 xenograft model.

With `CCN(C(=O)c1cc(C(C)C)c(O)cc1O)c1cccnc1` [Compound 18b, N-ethyl-2,4-dihydroxy-5-isopropyl-N-(pyridin-3-yl)benzamide] the “expression levels of the chaperone HSP70” value [1] was “increase”, the “levels of HSP90 client proteins (EGFR, Akt, CDK-4)” value [1] was “substantial depletion” and the IC50 [2] was 0.19 ± 0.01 µM. The IC50 [3] was 0.11 ± 0.00313 µM, the GI50 [4] was 0.09 ± 0.01 µM and the IC50 [5] was 0.24 ± 0.04 µM. For the same molecule, the MTD [6] was 250 mg/kg, the Vd ([7]; iv, 2 mg/kg) was 5.5 ± 1.1 L/kg and the AUC(0-inf) ([7]; iv, 2 mg/kg, IV (2 mg/kg)) was 520 ± 14 ng·h/mL. It also gave a clearance ([7]; iv, 2 mg/kg, CL, IV (2 mg/kg)) of ~64 mL/min/kg, a half-life ([7]; iv, 2 mg/kg, IV (2 mg/kg)) of 4 ± 1.7 h and a bioavailability ([7]; oral, 20 mg/kg) of 25%. It also gave a Cmax ([7]; po, 20 mg/kg) of 40 ± 13 ng/mL, a Tmax ([7]; po, 20 mg/kg) of 6 ± 2 h and an AUC(0-inf) ([7]; po, 20 mg/kg, PO (20 mg/kg)) of ~1310 ng·h/mL. It also gave a half-life ([7]; po, 20 mg/kg, PO (20 mg/kg)) of ~27.7 h, a TGI ([8]; 25 mg/kg) of 46.7% and a TGI ([8]; 50 mg/kg) of 46.9%. The TGI ([8]; 100 mg/kg) was 50.9%, the body weight loss ([8]; 25, 50, and 100 mg/kg) was “without significant body weight loss” and the IC50 [9] was 0.13 ± 0.09 µM. The “Loss of Body” value ([10]; 25 mg/kg) was 0%, the “TGI, tumor growth inhibition” value ([10]; 25 mg/kg) was 55.6% and the “Loss of Body” value ([10]; 100 mg/kg) was 0%. The “TGI, tumor growth inhibition” value ([10]; 100 mg/kg) was 74.3%.
